Measured values reported in PubChem BioAssay AID2060622 (Molecular Pharmacology Branch, DTP, NCI, 2025).

Tested on: 242566-281-R-J2-PDC complex spheroid viability
Test: Anticancer human tumor 242566-281-R-J2-PDC patient-derived pancreatic carcinoma cell line growth inhibition [CLK]
Details: for IC50: curve of first compound; for viability, T/C: stronger effect = lower value
In short: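 Multi-cell-type spheroids combined patient-derived tumor cells with HUVEC endothelial cells and human mesenchymal stem cells. Paired agents were dosed in half-log steps down from about clinical Cmax, or from 10 microM where Cmax was unknown.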

[1] = second compound 0.0316 µM, first compound 0.0316 µM
[2] = second compound 0.0316 µM, first compound 0.1 µM
[3] = second compound 0.0316 µM, first compound 0.316 µM
[4] = second compound 0.0316 µM, first compound 1 µM
[5] = second compound 0.0316 µM, first compound 3.16 µM
[6] = second compound 0.0316 µM, first compound 10 µM
[7] = second compound 0.1 µM, first compound 0.0316 µM
[8] = second compound 0.1 µM, first compound 0.1 µM
[9] = second compound 0.1 µM, first compound 0.316 µM
[10] = second compound 0.1 µM, first compound 1 µM
[11] = second compound 0.1 µM, first compound 3.16 µM
[12] = second compound 0.1 µM, first compound 10 µM
[13] = second compound 0.316 µM, first compound 0.0316 µM
[14] = second compound 0.316 µM, first compound 0.1 µM
[15] = second compound 0.316 µM, first compound 0.316 µM
[16] = second compound 0.316 µM, first compound 1 µM
[17] = second compound 0.316 µM, first compound 3.16 µM
[18] = second compound 0.316 µM, first compound 10 µM
[19] = second compound 1 µM, first compound 0.0316 µM
[20] = second compound 1 µM, first compound 0.1 µM
[21] = second compound 1 µM, first compound 0.316 µM
[22] = second compound 1 µM, first compound 1 µM
[23] = second compound 1 µM, first compound 3.16 µM
[24] = second compound 1 µM, first compound 10 µM
[25] = second compound 3.16 µM, first compound 0.0316 µM
[26] = second compound 3.16 µM, first compound 0.1 µM
[27] = second compound 3.16 µM, first compound 0.316 µM
[28] = second compound 3.16 µM, first compound 1 µM
[29] = second compound 3.16 µM, first compound 3.16 µM
[30] = second compound 3.16 µM, first compound 10 µM
[31] = second compound 10 µM, first compound 0.0316 µM
[32] = second compound 10 µM, first compound 0.1 µM
[33] = second compound 10 µM, first compound 0.316 µM
[34] = second compound 10 µM, first compound 1 µM
[35] = second compound 10 µM, first compound 3.16 µM
[36] = second compound 10 µM, first compound 10 µM
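Also: spheroids exposed to compounds for 7 days before readout.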
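For viability, T/C in this document: 100% = DMSO vehicle control wells.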

`COc1ccc([C@@H](O)c2cc(-c3ncnc4cc(N5CCOCC5)ccc34)c(F)cc2Cl)nn1` + CNC(=O)c1ccc(Nc2nc(OC3CCCC3)c3c(-c4ccc5nc(C)oc5c4)c[nH]c3n2)c(OC)c1 showed an IC50 (second compound 0.0316 µM) of over 10000 nM, an IC50 (second compound 0.1 µM) of over 10000 nM and an IC50 (second compound 0.316 µM) of over 10000 nM. For the same compound, the IC50 (second compound 1 µM) was 1910 nM, the IC50 (second compound 3.16 µM) was 129 nM and the IC50 (second compound 10 µM) was under 31.6 nM. The viability, T/C [1] was 106%, the viability, T/C [2] was 96.5% and the viability, T/C [3] was 89.5%. The viability, T/C [4] was 141%, the viability, T/C [5] was 92.4% and the viability, T/C [6] was 66.4%. It also gave a viability, T/C [7] of 88.9%, a viability, T/C [8] of 103% and a viability, T/C [9] of 89.7%. The viability, T/C [10] was 102%, the viability, T/C [11] was 89.2% and the viability, T/C [12] was 69.9%. It also gave a viability, T/C [13] of 91.7%, a viability, T/C [14] of 85.7% and a viability, T/C [15] of 72%. For the same compound, the viability, T/C [16] was 81.1%, the viability, T/C [17] was 76.9% and the viability, T/C [18] was 55%. The viability, T/C [19] was 69.2%, the viability, T/C [20] was 62.6% and the viability, T/C [21] was 57.7%. For the same compound, the viability, T/C [22] was 51.6%, the viability, T/C [23] was 53.1% and the viability, T/C [24] was 36.3%. It also gave a viability, T/C [25] of 54.5%, a viability, T/C [26] of 51.9% and a viability, T/C [27] of 47.2%. It also gave a viability, T/C [28] of 39.9%, a viability, T/C [29] of 40.2% and a viability, T/C [30] of 33.5%. The viability, T/C [31] was 51.3%, the viability, T/C [32] was 47.5% and the viability, T/C [33] was 46.5%. The viability, T/C [34] was 43.2%, the viability, T/C [35] was 41.9% and the viability, T/C [36] was 32.5%.
In the case of `CC(=O)O[C@H]1C(=O)[C@@]2(C)[C@H]([C@H](OC(=O)c3ccccc3)[C@]3(O)C[C@H](OC(=O)[C@H](O)[C@@H](NC(=O)c4ccccc4)c4ccccc4)C(C)=C1C3(C)C)[C@]1(OC(C)=O)CO[C@@H]1C[C@@H]2O` + CNC(=O)c1ccc(Nc2nc(OC3CCCC3)c3c(-c4ccc5nc(C)oc5c4)c[nH]c3n2)c(OC)c1, the IC50 (second compound 0.0316 µM) is reported as under 31.6 nM, the IC50 (second compound 0.1 µM) is reported as over 10000 nM and the IC50 (second compound 0.316 µM) is reported as over 10000 nM. The IC50 (second compound 1 µM) was over 10000 nM, the IC50 (second compound 3.16 µM) was under 31.6 nM and the IC50 (second compound 10 µM) was under 31.6 nM. For the same compound, the viability, T/C [1] was 61%, the viability, T/C [2] was 47.7% and the viability, T/C [3] was 42%. For the same compound, the viability, T/C [4] was 41.7%, the viability, T/C [5] was 46% and the viability, T/C [6] was 72.3%. The viability, T/C [7] was 84.7%, the viability, T/C [8] was 66.2% and the viability, T/C [9] was 53.2%. It also gave a viability, T/C [10] of 61.9%, a viability, T/C [11] of 70.7% and a viability, T/C [12] of 108%. It also gave a viability, T/C [13] of 91.7%, a viability, T/C [14] of 95% and a viability, T/C [15] of 86.2%. It also gave a viability, T/C [16] of 92%, a viability, T/C [17] of 115% and a viability, T/C [18] of 94.6%. The viability, T/C [19] was 62.3%, the viability, T/C [20] was 56.6% and the viability, T/C [21] was 52.2%. The viability, T/C [22] was 51.6%, the viability, T/C [23] was 50.7% and the viability, T/C [24] was 56.2%. It also gave a viability, T/C [25] of 51%, a viability, T/C [26] of 40.9% and a viability, T/C [27] of 43.1%. It also gave a viability, T/C [28] of 45.2%, a viability, T/C [29] of 46.3% and a viability, T/C [30] of 43%. For the same compound, the viability, T/C [31] was 43%, the viability, T/C [32] was 36.4% and the viability, T/C [33] was 43.7%. For the same compound, the viability, T/C [34] was 46.2%, the viability, T/C [35] was 43.4% and the viability, T/C [36] was 44.8%.
`CC1COCCN1c1cc(C2(S(C)(=N)=O)CC2)nc(-c2ccnc3[nH]ccc23)n1` (stereo not drawn) + CNC(=O)c1ccc(Nc2nc(OC3CCCC3)c3c(-c4ccc5nc(C)oc5c4)c[nH]c3n2)c(OC)c1 showed an IC50 (second compound 0.0316 µM) of over 10000 nM, an IC50 (second compound 0.1 µM) of over 10000 nM and an IC50 (second compound 0.316 µM) of 7160 nM. It also gave an IC50 (second compound 1 µM) of 763 nM, an IC50 (second compound 3.16 µM) of 192 nM and an IC50 (second compound 10 µM) of 61.3 nM. For the same compound, the viability, T/C [1] was 89%, the viability, T/C [2] was 105% and the viability, T/C [3] was 117%. It also gave a viability, T/C [4] of 118%, a viability, T/C [5] of 92.2% and a viability, T/C [6] of 61%. The viability, T/C [7] was 84.7%, the viability, T/C [8] was 90.1% and the viability, T/C [9] was 91.6%. For the same compound, the viability, T/C [10] was 104%, the viability, T/C [11] was 93% and the viability, T/C [12] was 55.6%. For the same compound, the viability, T/C [13] was 76.8%, the viability, T/C [14] was 77.8% and the viability, T/C [15] was 80.3%. The viability, T/C [16] was 70.8%, the viability, T/C [17] was 71% and the viability, T/C [18] was 41.7%. It also gave a viability, T/C [19] of 73.9%, a viability, T/C [20] of 69.7% and a viability, T/C [21] of 55.1%. The viability, T/C [22] was 49.4%, the viability, T/C [23] was 34.3% and the viability, T/C [24] was 17.7%. The viability, T/C [25] was 55.2%, the viability, T/C [26] was 55.1% and the viability, T/C [27] was 46.9%. For the same compound, the viability, T/C [28] was 36.2%, the viability, T/C [29] was 24.6% and the viability, T/C [30] was 13.4%. For the same compound, the viability, T/C [31] was 52.5%, the viability, T/C [32] was 47.1% and the viability, T/C [33] was 43.8%. The viability, T/C [34] was 33.2%, the viability, T/C [35] was 22.1% and the viability, T/C [36] was 13.5%.
`Nc1ccccc1NC(=O)c1ccc(CNC(=O)OCc2cccnc2)cc1` + CN1CCN(c2cc(C(=O)Nc3cc4cc(-c5cnn(C)c5)ccc4cn3)ccn2)CC1 gave an IC50 (second compound 0.0316 µM) of 2690 nM, an IC50 (second compound 0.1 µM) of 1540 nM and an IC50 (second compound 0.316 µM) of under 31.6 nM. For the same compound, the IC50 (second compound 1 µM) was under 31.6 nM, the IC50 (second compound 3.16 µM) was under 31.6 nM and the IC50 (second compound 10 µM) was under 31.6 nM. For the same compound, the viability, T/C [1] was 95.9%, the viability, T/C [2] was 96.1% and the viability, T/C [3] was 84.2%. The viability, T/C [4] was 83.5%, the viability, T/C [5] was 44.2% and the viability, T/C [6] was 10.9%. It also gave a viability, T/C [7] of 92.5%, a viability, T/C [8] of 82.8% and a viability, T/C [9] of 70.5%. It also gave a viability, T/C [10] of 65.8%, a viability, T/C [11] of 31.6% and a viability, T/C [12] of 5.31%. It also gave a viability, T/C [13] of 28.3%, a viability, T/C [14] of 29.4% and a viability, T/C [15] of 28.4%. The viability, T/C [16] was 20.9%, the viability, T/C [17] was 6.85% and the viability, T/C [18] was 0.46%. It also gave a viability, T/C [19] of 4.47%, a viability, T/C [20] of 4.78% and a viability, T/C [21] of 4.55%. It also gave a viability, T/C [22] of 3.08%, a viability, T/C [23] of 2.04% and a viability, T/C [24] of 1.1%. The viability, T/C [25] was 9.27%, the viability, T/C [26] was 7.2% and the viability, T/C [27] was 7.84%. It also gave a viability, T/C [28] of 6.26%, a viability, T/C [29] of 5.4% and a viability, T/C [30] of 3.16%. It also gave a viability, T/C [31] of 2.19%, a viability, T/C [32] of 1.81% and a viability, T/C [33] of 1.73%. It also gave a viability, T/C [34] of 2.14%, a viability, T/C [35] of 1.57% and a viability, T/C [36] of 0.86%.
